Twelve compounds from PMC13126677 (Journal of Medicinal Chemistry, 2026) can be followed below.

Converted amounts (≈) assume the structure as drawn. A value given as a limit tells only on which side of the number the result lay.

Data set [1] deals with procoagulant activity of B. jararaca venom. Particulars: read-out: Coagulation assay EC50 B. jararaca; 100 ng B. jararaca venom, citrated bovine plasma; mean of n ≥ 3, range in brackets.
Experimental: (§1) This assay consists of preincubating venom (or venom vehicle control) at a species-specific dose with the compound of interest (or compound vehicle control), then adding citrated bovine plasma to the wells and activating the clotting cascade with calcium chloride. […] Compounds of interest were stamped onto 384-well plates at a volume of 0.5 μL and a concentration of 10 mM in 100% DMSO. Positive and negative control wells were stamped with 0.5 μL of 100% DMSO. To the test wells and the venom-only positive control wells, 10 μL of venom diluted to 1 μg/mL (E. romani) or 10 μg/mL (B. jararaca) in PBS was added, giving a final well amount of 10 ng (E. romani) or 100 ng (B. jararaca) per well. In the no venom negative control wells, 10 μL of PBS was added. The plates were then sealed, span briefly in a Platefuge and incubated at 37 °C for 25 min to allow venom-inhibitor interaction. While the plates were incubating, sufficient citrated bovine plasma (S0260, BioWest) to allow 20 μL/well was centrifuged at 3120 RCF for 5 min to remove any residual cellular debris and the supernatant was collected. The 384-well plates were removed from the incubator for 5 min to allow acclimation to room temperature, then 20 μL/well of 20 mM CaCl2 was added and immediately followed by the addition of 20 μL/well of centrifuged citrated bovine plasma, both via a Multidrop Combi reagent dispenser (5840330, Thermo Fisher Scientific). The plates were then read kinetically using an absorbance protocol on a CLARIOStar microplate reader at 595 nm for 60 min. […] Dose response plates were conducted identically and the % inhibition values at each dose were used to draw EC50 curves to estimate the EC50 value of each compound tested. All coagulation experiments were repeated independently a minimum of three times.
Data set [2] deals with procoagulant venom activity (E. romani and B. jararaca). Particulars: in words; coagulation assay.
Experimental: as §1
The test system of data set [3] is E. romani P–I and P–III SVMPs. Particulars: drug 2 μM, gel.
Experimental: (§2) Evaluation of SVMP toxin activity of human prothrombin and fibrinogen and inhibition by test compounds was performed by SDS-PAGE degradation gel electrophoresis using venom-purified toxins. P–I, P–II and P–III SVMPs were isolated using an adaptation of the method of Howes et al. Whole E. romani venom (15 mg) was initially separated using size exclusion chromatography (SEC) on a 120 mL column of Superdex 75 (Cytiva). The P–II SVMP (22 kDa) was pure and ready to use at this stage. P–I and P–III SVMP containing peaks were separately applied to a 1 mL high resolution hydrophobic interaction chromatography (HIC) column (SOURCE 15PHE, Cytiva). […] The P–I eluted as two peaks of proteins with identical molecular weight (21 kDa) which were combined back together. The P–III-containing fraction from SEC eluted from HIC as multiple peaks of P–III SVMP isoforms, well separated from the earlier eluting L-amino acid oxidase and high molecular weight C-type lectin-like proteins. The proteins in the PIII-containing peaks were pooled back together.
Prothrombin degradation was measured by incubating 2 μg of human prothrombin (Hematologic Technologies INC) in the presence or absence of drug and the P–I, P–II, and P–III SVMPs. […] Briefly, drug or DMSO and 200 ng of purified SVMP isoform were incubated for 30 min at 37 °C in a water bath, after which 2 μg of human prothrombin were added and the samples incubated for another hour at 37 °C. Drug concentrations used were 2 μM for P–I and P–III SVMPs. Samples were then processed for loading onto a 4–20% SDS-PAGE gel (Biorad) and were run under reducing conditions for 45 min at 180 V. The gels were stained with Coomassie Brilliant Blue R250 and degradation profiles were visualized and images captured using a GelDoc (Biorad).
For data set [4], the system named is E. romani P–I, P–II and P–III SVMPs. Particulars: P–I, P–II, P–III SVMPs; drug 10 μM (P–I, P–II), 400 nM (P–III); gel.
Experimental: as §2
Degradation of human fibrinogen was measured in a similar manner. Human fibrinogen (Merck) was added at 5 μg/reaction and incubated with the different SVMP isoforms in the presence or absence of drugs. Drug concentrations used were 10 μM for P–I and P–II SVMP and 400 nM for P–III SVMP. The reactions consisted of 200 ng SVMP isoform and the appropriate concentration of drug, which were then incubated for 30 min at 37 °C in a water bath. Five micrograms of fibrinogen were then added and the samples incubated for another hour at 37 °C, before separation by SDS-PAGE as described above.
For data set [5], the system named is procoagulant activity of E. romani venom. Particulars: read-out: Coagulation assay EC50 E. romani; 10 ng E. romani venom, citrated bovine plasma; mean of n ≥ 3, range in brackets.
Experimental: as §1
The nature of data set [6]: in vitro. Particulars: human, microsomes.
Experimental: (§3) The DMPK properties data described in the manuscript were measured via a high-throughput platform by AstraZeneca (United Kingdom).
The test system of data set [7] is SVMP activity of Calloselasma rhodostoma venom. Particulars: read-out: Inhibition of SVMP enzymatic activity EC50 CRH; C. rhodostoma venom; mean of n ≥ 3, range in brackets.
Experimental: (§4) Throughout our medicinal chemistry campaign, compounds were evaluated for their ability to inhibit enzymatic SVMP toxin activity in vitro using a previously described fluorescent-based substrate cleavage assay against five medically important viper venoms, namely Echis romani (Roman’s carpet viper, West Africa), Crotalus atrox (Western diamondback rattlesnake, North America), Calloselasma rhodostoma (Malayan pit viper, South East Asia), Bothrops jararaca (jararaca, South America) and Bitis arietans (puff adder, Africa).
(§5) Compounds of interest were stamped onto 384-well plates at a volume of 0.91 μL at a concentration of 1 mM in 100% DMSO (D2650, Sigma-Aldrich). Positive and negative control wells were stamped with 0.91 μL of 100% DMSO. To the test wells and the venom-only positive control wells, 15 μL of venom diluted to 0.066 μg/mL in PBS was added, giving a final amount of 1 μg/well. In the no venom negative control wells, 15 μL of PBS was added. The plates were then sealed, span briefly in a Platefuge (C2000, Benchmark Scientific) and incubated at 37 °C for 25 min to allow venom-inhibitor interaction. […] Dose response plates were conducted identically and the % inhibition values at each dose were used to draw EC50 curves to estimate the EC50 value of each compound tested. All SVMP experiments were repeated independently a minimum of three times.
Data set [8] has as its system SVMP activity of Bothrops jararaca venom. Particulars: read-out: Inhibition of SVMP enzymatic activity EC50 BJA; B. jararaca venom; mean of n ≥ 3, range in brackets.
Experimental: as §4, §5
Data set [9] has as its system SVMP activity of Echis romani venom. Particulars: read-out: Inhibition of SVMP enzymatic activity EC50 ERO; E. romani venom; mean of n ≥ 3, range in brackets.
Experimental: as §4, §5
Data set [10] can be described thus: in vitro. Particulars: rat, hepatocytes.
Experimental: as §3
Data set [11] relates to SVMP activity of Crotalus atrox venom. Particulars: read-out: Inhibition of SVMP enzymatic activity EC50 CAT; C. atrox venom; mean of n ≥ 3, range in brackets.
Experimental: as §4, §5
The subject of data set [12] is SVMP activity of Bitis arietans venom. Particulars: read-out: Inhibition of SVMP enzymatic activity EC50 BAR; B. arietans venom; mean of n ≥ 3, range in brackets.
Experimental: as §4, §5
Data set [13] in a line: physchem. Particulars: organic solvent / aqueous solvent at pH 7.4, pH 7.4.
Experimental: as §3
The nature of data set [14]: physchem. Particulars: aqueous medium at pH 7.4, pH 7.4, aqueous buffer.
Experimental: as §3

Experimental for human plasma protein: as §3

Regarding `CC1(C)SCCN(S(=O)(=O)c2ccc(Oc3ccncc3)cc2)[C@H]1C(=O)NO` [Prinomastat, prinomastat, reference compound], the figures for the concentration giving a half-maximal response (EC50) in data set [1] and in data set [5] were 972 nM and 558 nM, respectively. In addition, the “inhibition of procoagulant venom activity” value (shortened to “inhibition”) in [2] was “demonstrated inhibition of procoagulant activity”. For the same compound, the “protection against prothrombin degradation” value in data set [3] is on record as “almost full protection”. In data set [4], the “protection against degradation of fibrinogen” value is on record as “protected against the degradation of fibrinogen”.

Consider `COCCN1CCN(S(=O)(=O)c2ccc(Oc3ccc(Cl)cc3)cc2)[C@@H](C(=O)NO)C1` [compound 15, (R)-1-((4-(4-Chlorophenoxy)phenyl)sulfonyl)-N-hydroxy-4-(2-methoxyethyl)piperazine-2-carboxamide], for which the microsomal CLint (usually a measure of how fast metabolising enzymes remove a compound, apart from limits set by blood flow) in the data set “in vitro [6]” was less than 3 µL/min/mg. Further, the EC50 – broadly, the concentration at which the effect is half-maximal – in [7] came out at 22.5 nM; in data set [8], 232 nM; in data set [9], 7.9 nM; in data set [11] it was 47.9 nM; in data set [12] it was 19.9 nM. For the same compound, in the data set “in vitro [10]”, the hepatocyte CLint – broadly, a measure of how fast metabolising enzymes remove a compound, apart from limits set by blood flow – is more than 300 µL/min/1e6 cells. In the data set with human plasma protein, the “Human Protein binding (%free)” value worked out at 2.3 %free. In addition, the logD – broadly, lipophilicity at a set pH, counting ionised and neutral species – in the data set “physchem [13]” worked out at 2.4. Besides, the solubility – broadly, how much of the substance goes into solution per volume – in “physchem [14]” was found to be 431 µM (≈ 203 µg/mL).

In “in vitro [6]”, `COCCN1CCN(S(=O)(=O)c2ccc(Oc3ccc(OC(F)(F)F)cc3)cc2)[C@@H](C(=O)NO)C1` [compound 16, (R)-N-Hydroxy-4-(2-methoxyethyl)-1-((4-(4-(trifluoromethoxy)phenoxy)phenyl)sulfonyl)piperazine-2-carboxamide] displayed an intrinsic metabolic clearance (microsomal CLint) of 8 µL/min/mg. Besides, the EC50 in data set [7] is 79.3 nM; in [8], 856 nM; in [9], 15.9 nM; in data set [11], 76.9 nM; in [12], 27.8 nM. The compound further had an intrinsic clearance (hepatocyte CLint) in “in vitro [10]” of 65.6 µL/min/1e6 cells. For the same compound, the “Human Protein binding (%free)” value in the data set with human plasma protein stood at 3.0 %free. Besides, in “physchem [13]”, the pH-dependent lipophilicity (logD) was 2.9. This compound registered a solubility in the data set “physchem [14]” of 437 µM (≈ 227 µg/mL).

Turning to `COCCN1CCN(S(=O)(=O)c2ccc(Oc3ccc(OC)cc3)cc2)[C@@H](C(=O)NO)C1` [compound 17, (R)-N-Hydroxy-4-(2-methoxyethyl)-1-((4-(4-methoxyphenoxy)phenyl)sulfonyl)piperazine-2-carboxamide], the microsomal CLint in the data set “in vitro [6]” is more than 300 µL/min/mg. The EC50 in data set [7] amounted to 11.9 nM; in [8], 209 nM; in data set [9], 1.1 nM; in [11] it was 31.1 nM; in [12] it was 10.4 nM. This compound also came in with an intrinsic metabolic clearance (hepatocyte CLint) in “in vitro [10]” of 209 µL/min/1e6 cells. For the same compound, the “Human Protein binding (%free)” value with human plasma protein was 6.4 %free. The same compound had a log distribution coefficient (logD) in the data set “physchem [13]” of 1.9. In addition, the solubility in the data set “physchem [14]” was found to be 236 µM (≈ 110 µg/mL).

Consider `COc1ccc(S(=O)(=O)N2CCNC[C@@H]2C(=O)NO)cc1.Cl` [compound 18, (R)-N-Hydroxy-1-((4-methoxyphenyl)sulfonyl)piperazine-2-carboxamide hydrochloride salt], for which the microsomal CLint in “in vitro [6]” is less than 3 µL/min/mg. The EC50 in [7] is 83.3 nM; in [8] it was 56.1 nM; in [9], 47.6 nM; in [11] it was 69.3 nM; in data set [12], 24.7 nM. The hepatocyte CLint in “in vitro [10]” stood at 6.3 µL/min/1e6 cells. Further, the “Human Protein binding (%free)” value in the data set with human plasma protein stood at 91 %free. This compound also registered a logD in “physchem [13]” of -0.2. For the same compound, the solubility in “physchem [14]” amounted to 231 µM.

In the data set “in vitro [6]”, `COc1ccc(S(=O)(=O)N2CCN(S(C)(=O)=O)C[C@@H]2C(=O)NO)cc1` [compound 19, (R)-N-Hydroxy-1-((4-methoxyphenyl)sulfonyl)-4-(methylsulfonyl)piperazine-2-carboxamide] displayed a microsomal CLint of less than 3 µL/min/mg. The EC50 in data set [7] turned out to be 62.9 nM; in data set [8], 20 nM; in data set [9], 10.9 nM; in data set [11], 45.3 nM; in data set [12], 14.3 nM; in data set [1] it was 509 nM. In addition, the EC50 in [5] amounted to 496 nM. Moreover, in “in vitro [10]”, the hepatocyte CLint was found to be 8.9 µL/min/1e6 cells. Moreover, the “Human Protein binding (%free)” value with human plasma protein is recorded as 88 %free. The compound further displayed a logD in the data set “physchem [13]” of -0.3. This compound came in with a solubility in “physchem [14]” of less than 1000 µM.

As for `COCCN1CCN(S(=O)(=O)c2ccc(OC)cc2)[C@@H](C(=O)NO)C1` [compound 20, (R)-N-Hydroxy-4-(2-methoxyethyl)-1-((4-methoxyphenyl)sulfonyl)piperazine-2-carboxamide], the intrinsic metabolic clearance (microsomal CLint) in “in vitro [6]” is less than 3 µL/min/mg. Further, the concentration giving a half-maximal response (EC50) in data set [7] was 137 nM; in [8], 86.2 nM; in data set [9], 61.9 nM; in data set [11], 68.9 nM; in data set [12], 11.1 nM; in data set [1], more than 10000 nM. The half-maximal effective concentration (EC50) in data set [5] was more than 10000 nM. The compound also registered an intrinsic metabolic clearance (hepatocyte CLint) in the data set “in vitro [10]” of 57.1 µL/min/1e6 cells. Moreover, the “Human Protein binding (%free)” value in the data set on human plasma protein is reported as 82 %free. Moreover, the logD in “physchem [13]” came out at 0.1. The solubility in the data set “physchem [14]” is more than 1000 µM. Moreover, in data set [2], the “inhibition” value is “inactive”.

Regarding `COc1ccc(S(=O)(=O)N2CCN(S(=O)(=O)c3ccc(OC)cc3)[C@@H](C(=O)NO)C2)cc1` [compound 21, (R)-N-Hydroxy-1,4-bis((4-methoxyphenyl)sulfonyl)piperazine-2-carboxamide], the microsomal CLint in “in vitro [6]” is 10.2 µL/min/mg. In addition, the EC50 in data set [7] came out at 58.8 nM; in data set [8] it was 18.2 nM; in [9], 15 nM; in data set [11], 32.5 nM; in [12], 10.6 nM; in data set [1] it was 3920 nM. Further, in data set [5], the 50% effective concentration (EC50) amounted to 4590 nM. For the same compound, the intrinsic metabolic clearance (hepatocyte CLint) in the data set “in vitro [10]” was 199 µL/min/1e6 cells. In the data set on human plasma protein, the “Human Protein binding (%free)” value worked out at 30 %free. Besides, the logD in the data set “physchem [13]” is 1. For the same compound, in “physchem [14]”, the solubility worked out at 25 µM (≈ 12.1 µg/mL).

With `COc1ccc(S(=O)(=O)N2CCN(S(=O)(=O)c3c(C)noc3C)C[C@@H]2C(=O)NO)cc1` [compound 22, (R)-4-((3,5-Dimethylisoxazol-4-yl)sulfonyl)-N-hydroxy-1-((4-methoxyphenyl)sulfonyl)piperazine-2-carboxamide], in the data set “in vitro [6]”, the intrinsic clearance (microsomal CLint) was determined as 17.5 µL/min/mg. Also, the concentration giving a half-maximal response (EC50) in [7] is 53.3 nM; in data set [8], 17.8 nM; in data set [9], 10.7 nM; in data set [11] it was 35 nM; in [12], 9.8 nM; in [1], 1090 nM. In [5], the concentration for a half-maximal effect (EC50) was found to be 4850 nM. For the same compound, the intrinsic metabolic clearance (hepatocyte CLint) in “in vitro [10]” is 44 µL/min/1e6 cells. In addition, the “Human Protein binding (%free)” value in the data set with human plasma protein amounted to 51 %free. Moreover, in “physchem [13]”, the logD came out at 0.7. In “physchem [14]”, this compound gave a solubility of more than 1000 µM.

Compound `COCCN1CCN(S(=O)(=O)c2ccc(Oc3ccc(C(F)(F)F)cc3)cc2)[C@@H](C(=O)NO)C1` [compound 28, (R)-N-Hydroxy-4-(2-methoxyethyl)-1-((4-(4-(trifluoromethyl)phenoxy)phenyl)sulfonyl)piperazine-2-carboxamide] yielded a microsomal CLint in “in vitro [6]” of 8.6 µL/min/mg. For the same compound, the EC50 in data set [7] was found to be 95.9 nM; in data set [8] it was 1510 nM; in [9] it was 7.6 nM; in data set [11] it was 68.8 nM; in data set [12], 39.5 nM. This compound also yielded an intrinsic clearance (hepatocyte CLint) in the data set “in vitro [10]” of 22.8 µL/min/1e6 cells. Besides, in the data set on human plasma protein, the “Human Protein binding (%free)” value is reported as 3.4 %free. The compound also displayed a log distribution coefficient (logD) in “physchem [13]” of 2.7. Moreover, in the data set “physchem [14]”, the concentration in solution (solubility) came to 320 µM (≈ 161 µg/mL).

With `COCCN1CCN(S(=O)(=O)c2ccc(-c3ccc(Cl)cc3)cc2)[C@@H](C(=O)NO)C1` [compound 29, (R)-1-((4′-Chloro-[1,1′-biphenyl]-4-yl)sulfonyl)-N-hydroxy-4-(2-methoxyethyl)piperazine-2-carboxamide], in the data set “in vitro [6]”, the intrinsic metabolic clearance (microsomal CLint) is 5.1 µL/min/mg. Also, the 50% effective concentration (EC50) in data set [7] was 220 nM; in [8], 38.9 nM; in [9], 16.1 nM; in data set [11], 52.7 nM; in [12], 3.5 nM; in data set [1] it was more than 10000 nM. In [5], the concentration giving a half-maximal response (EC50) was more than 10000 nM. The same compound had a hepatocyte CLint in “in vitro [10]” of 21.1 µL/min/1e6 cells. Besides, in the data set on human plasma protein, the “Human Protein binding (%free)” value is 5.2 %free. The compound also returned a logD in the data set “physchem [13]” of 2.5. The compound further displayed a solubility in “physchem [14]” of 310 µM (≈ 141 µg/mL). Also, the “inhibition” value in data set [2] is “inactive”.

For `COCCN1CCN(S(=O)(=O)c2ccc(-c3ccc(F)cc3)cc2)[C@@H](C(=O)NO)C1` [compound 30, (R)-1-((4′-Fluoro-[1,1′-biphenyl]-4-yl)sulfonyl)-N-hydroxy-4-(2-methoxyethyl)piperazine-2-carboxamide], the intrinsic clearance (microsomal CLint) in “in vitro [6]” is 7.1 µL/min/mg. Moreover, the EC50 is 125 nM in [7]; 27.1 nM in data set [8]; 18.5 nM in data set [9]; 18.6 nM in data set [11]; 1.8 nM in [12]; more than 10000 nM in [1]. Also, the half-maximal effective concentration (EC50) in data set [5] is more than 10000 nM. This compound returned a hepatocyte CLint in the data set “in vitro [10]” of more than 300 µL/min/1e6 cells. In addition, the “Human Protein binding (%free)” value in the data set with human plasma protein was found to be 14.0 %free. The pH-dependent lipophilicity (logD) in “physchem [13]” amounted to 1.9. Further, in the data set “physchem [14]”, the concentration in solution (solubility) was 468 µM (≈ 205 µg/mL). In data set [2], the “inhibition” value was “inactive”.
